Measured values published in BindingDB's records for doi:10.1038/nchembio.2326 (California Institute of Technology, 2017).

What was measured:
[1] = molecular target: BRISC and BRCA1-A complex member 1/BRISC and BRCA1-A complex member 2/BRISC complex subunit Abraxas 2/Lys-63-specific deubiquitinase BRCC36 (Human, UniProt P46736+Q15018+Q9NWV8+Q9NXR7); experiment: In Vitro BRCC36 Activity Assay
Experimental: BRCC36 activity was measured using 1 nM purified BRISC complex and 80 nM di-ubiquitin substrate DiUbK63TAMRA (UF-310, Boston Biochem). TAMRA fluorescence intensity was monitored using a PHERAstar plate reader with excitation at 540 nm and emission at 590 nm. Reactions were performed in black low-volume 384-well plates and analyzed as described above.

Histone deacetylase 6 = molecular target: T1, Histone deacetylase 6 (Homo sapiens, UniProt Q9UBN7); experiment: HDAC6 Activity Assay; settings: pH 8; 37 °C
T1 sequence (Q9UBN7 whole entry): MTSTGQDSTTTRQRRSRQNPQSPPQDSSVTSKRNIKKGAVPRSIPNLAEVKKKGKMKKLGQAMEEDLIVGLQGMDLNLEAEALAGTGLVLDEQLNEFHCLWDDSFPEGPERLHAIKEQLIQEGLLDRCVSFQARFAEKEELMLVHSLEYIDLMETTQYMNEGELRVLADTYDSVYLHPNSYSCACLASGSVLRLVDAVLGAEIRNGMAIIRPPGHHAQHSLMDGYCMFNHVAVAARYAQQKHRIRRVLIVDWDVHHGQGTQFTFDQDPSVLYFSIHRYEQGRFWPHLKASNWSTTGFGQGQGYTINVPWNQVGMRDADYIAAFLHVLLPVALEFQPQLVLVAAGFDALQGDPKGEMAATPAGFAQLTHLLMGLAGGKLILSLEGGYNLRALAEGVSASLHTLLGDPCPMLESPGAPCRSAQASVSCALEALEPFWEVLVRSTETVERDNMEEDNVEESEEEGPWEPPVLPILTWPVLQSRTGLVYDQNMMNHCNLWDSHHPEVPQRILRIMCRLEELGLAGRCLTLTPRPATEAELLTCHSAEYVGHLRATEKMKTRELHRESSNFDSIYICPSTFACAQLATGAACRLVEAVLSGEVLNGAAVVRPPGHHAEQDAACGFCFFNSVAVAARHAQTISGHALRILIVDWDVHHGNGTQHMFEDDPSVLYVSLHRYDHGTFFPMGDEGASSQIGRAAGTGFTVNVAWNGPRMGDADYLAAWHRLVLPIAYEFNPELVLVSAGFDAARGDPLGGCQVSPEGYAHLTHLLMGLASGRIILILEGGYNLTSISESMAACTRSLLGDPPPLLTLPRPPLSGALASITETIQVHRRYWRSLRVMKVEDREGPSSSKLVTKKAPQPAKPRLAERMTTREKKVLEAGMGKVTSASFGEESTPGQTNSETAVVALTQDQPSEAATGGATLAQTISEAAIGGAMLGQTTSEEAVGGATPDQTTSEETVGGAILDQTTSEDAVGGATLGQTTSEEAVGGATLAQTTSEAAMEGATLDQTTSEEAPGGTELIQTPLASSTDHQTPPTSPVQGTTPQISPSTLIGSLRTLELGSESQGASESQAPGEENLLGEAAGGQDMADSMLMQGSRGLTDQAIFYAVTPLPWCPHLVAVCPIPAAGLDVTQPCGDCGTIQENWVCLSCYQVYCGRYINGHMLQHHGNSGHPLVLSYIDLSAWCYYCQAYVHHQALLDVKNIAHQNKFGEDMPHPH
Experimental: The enzyme was diluted with 25 mM Tris-Cl, 137 mM NaCl, 2.7 mM KCl, 1 mM MgCl2, 0.1 mg/ml BSA, pH 8.0 buffer and its activity was measured by using Substrate 3 (BPS Bioscience; catalog #50037). The assays were carried out in black, low-binding NUNC 96-well plates. Each well contained a volume of 50 μl including buffer, HDAC (50 ng/well), inhibitor, and substrate (20 μM). Prior to adding substrate, the plate was pre-incubated for 5 min. Upon addition of substrate, the plate was incubated at 37 °C for 30 min. At this point, HDAC assay developer (50 μl, BPS Bioscience; catalog #50030) was added to each well and the plate was incubated for 15 min at room temperature. The fluorescence was recorded with a BioTek FLx800 or Synergy H4 microplate reader.

[2] = molecular target: 72 kDa type IV collagenase (Homo sapiens, UniProt P08253); experiment: MMP Activity Assay; settings: pH 7.5; 37 °C
72 kDa type IV collagenase, sequence (P08253 whole entry, the tested form may be a part): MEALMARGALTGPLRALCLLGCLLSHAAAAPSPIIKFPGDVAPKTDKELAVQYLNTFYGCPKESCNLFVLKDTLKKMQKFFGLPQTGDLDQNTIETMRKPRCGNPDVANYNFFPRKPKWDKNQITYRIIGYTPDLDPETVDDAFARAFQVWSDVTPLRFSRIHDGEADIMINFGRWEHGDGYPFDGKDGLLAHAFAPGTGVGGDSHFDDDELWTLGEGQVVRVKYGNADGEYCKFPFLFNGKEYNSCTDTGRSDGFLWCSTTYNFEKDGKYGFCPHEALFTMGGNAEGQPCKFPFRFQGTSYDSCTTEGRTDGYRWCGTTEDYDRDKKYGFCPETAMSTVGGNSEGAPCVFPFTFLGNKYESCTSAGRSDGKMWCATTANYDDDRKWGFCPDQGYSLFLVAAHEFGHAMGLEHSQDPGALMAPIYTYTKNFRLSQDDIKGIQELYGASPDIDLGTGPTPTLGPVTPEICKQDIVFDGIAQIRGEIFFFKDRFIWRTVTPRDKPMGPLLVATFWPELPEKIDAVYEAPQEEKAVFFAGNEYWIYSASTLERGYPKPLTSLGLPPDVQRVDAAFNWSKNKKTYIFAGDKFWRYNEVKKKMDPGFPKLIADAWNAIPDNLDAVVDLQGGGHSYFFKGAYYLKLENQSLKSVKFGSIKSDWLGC
Experimental: (§1) The assay was carried out in white NUNC 96-well plates as previously described [Puerta et al., J. Biol. Inorg. Chem., 11:131-138]. Each well contained a total volume of 90 μl including buffer (50 mM HEPES, 10 mM CaCl2, 0.05% Brij-35, pH 7.5), human recombinant MMP (1.16 U/well for MMP2 and 0.007 U/well for MMP12), and the fragment solution. This mixture was incubated at 37 °C for 30 min. The reaction was then initiated by the addition of 10 μl of the fluorogenic MMP substrate (4 μM final concentration, Mca-Pro-Leu-Gly-Leu-Dpa-Ala-Arg-NH2-AcOH) (Mca = (7-methoxycoumarin-4-yl) acetyl; Dpa = N-3-(2,4-dinitrophenyl)-L-a,β-diaminopropionyl). Fluorescence measurements were recorded using a BioTek Synergy H4 fluorescence plate reader every minute for 20 min with excitation and emission wavelengths at 320 and 400 nm, respectively.

[3] = molecular target: Macrophage metalloelastase (Homo sapiens, UniProt P39900); experiment: MMP Activity Assay; settings: pH 7.5; 37 °C
Macrophage metalloelastase, sequence (P39900 whole entry): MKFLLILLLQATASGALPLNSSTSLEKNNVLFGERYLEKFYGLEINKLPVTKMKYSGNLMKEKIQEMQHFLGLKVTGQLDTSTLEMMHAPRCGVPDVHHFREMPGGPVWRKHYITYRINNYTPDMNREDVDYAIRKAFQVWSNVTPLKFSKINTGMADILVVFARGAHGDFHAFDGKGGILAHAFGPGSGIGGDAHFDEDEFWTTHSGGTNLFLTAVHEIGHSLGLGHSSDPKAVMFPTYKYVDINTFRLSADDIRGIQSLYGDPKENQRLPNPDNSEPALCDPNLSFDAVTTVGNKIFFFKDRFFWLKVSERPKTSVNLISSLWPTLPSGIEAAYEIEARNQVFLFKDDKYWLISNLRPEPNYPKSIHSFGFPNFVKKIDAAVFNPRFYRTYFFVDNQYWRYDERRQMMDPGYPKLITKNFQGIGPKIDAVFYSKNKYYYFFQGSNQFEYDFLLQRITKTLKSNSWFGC
Experimental: as §1

Lactoylglutathione lyase = Lactoylglutathione lyase (Homo sapiens, UniProt Q04760); experiment: GLO1 Activity Assay; settings: pH 7; 25 °C
Lactoylglutathione lyase, sequence (Q04760 whole entry): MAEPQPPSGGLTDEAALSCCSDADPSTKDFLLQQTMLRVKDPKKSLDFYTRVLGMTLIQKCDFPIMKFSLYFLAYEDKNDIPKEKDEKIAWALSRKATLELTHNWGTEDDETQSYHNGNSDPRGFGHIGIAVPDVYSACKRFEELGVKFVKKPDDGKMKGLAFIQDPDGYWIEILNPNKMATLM
Experimental: Assays were carried out in 100 mM sodium phosphate, pH 7.0 buffer using 96-well Clear UV Plate (Corning UV Transparent Microplates; catalog #3635). A fresh solution of glutathione (pre-substrate 1, 100 mM) as well as methylglyoxal (pre-substrate 2, 100 mM) was prepared in deionized water. The substrate was prepared by adding 14.5 ml of buffer and 0.99 ml of each pre-substrate components. The substrate mixture was vortexed vigorously for 15 s, then allowed to sit at room temperature for 20 min. Initial well volume was 50 μl containing GLO1 (40 ng) and inhibitor. This protein and inhibitor mixture was incubated for 15–20 min before the addition of substrate. To this was then added substrate (150 μl), yielding a maximum amount of 5% DMSO per well. The enzyme activity was measured using a BioTek Synergy H4 plate reader by measuring absorbance at 240 nmevery 1 min for 8 min.

[4] = molecular target: 26S proteasome non-ATPase regulatory subunit 14 (Homo sapiens, UniProt O00487); experiment: In Vitro Rpn11 Activity Assay; settings: pH 7.5; 30 °C
26S proteasome non-ATPase regulatory subunit 14, sequence (O00487 whole entry): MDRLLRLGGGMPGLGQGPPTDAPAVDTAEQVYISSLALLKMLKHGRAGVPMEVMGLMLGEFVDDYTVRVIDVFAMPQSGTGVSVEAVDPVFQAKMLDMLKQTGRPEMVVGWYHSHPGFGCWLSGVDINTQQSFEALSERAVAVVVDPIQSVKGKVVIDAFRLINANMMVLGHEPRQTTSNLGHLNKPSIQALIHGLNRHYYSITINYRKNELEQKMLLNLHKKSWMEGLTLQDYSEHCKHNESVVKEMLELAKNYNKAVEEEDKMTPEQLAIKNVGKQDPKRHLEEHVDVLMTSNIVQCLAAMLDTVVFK

Row | IC50 [1] [µM] | IC50 (Histone deacetylase 6) [µM] | IC50 [2] [µM] | IC50 [3] [µM] | IC50 (Lactoylglutathione lyase) [µM] | IC50 [4] [µM] | SMILES
1 | 2.3 | > 200 | > 50 | > 50 | 42.8 | – | O=C(NCCc1nccs1)c1cnc2c(S)cccc2c1 [Capzimin]
2 | – | – | – | – | – | 2.4 | Sc1cccc2cccnc12 [8-Mercaptoquinoline (8TQ)]
